Data: patent US10703733B2, “MCL-1 inhibitors” (Gilead Sciences, Inc., priority 2018, dated 2020)
pEC50, pIC50: −log10 of the molar value.

Assays:
[1] = biological target: MCL-1/Bim interaction (recombinant human MCL-1 protein, residues 171-327; biotinylated human Bim peptide, residues 51-76) (Homo sapiens (Human), UniProt Q07820); experiment: MCL-1/Bim Binding AlphaLISA Assay; settings: 0.0625 nM 6xHis-Mcl-1 (171-327), 0.0625 nM biotinylated-Bim peptide
Method in brief: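 Compounds first sat 1 h with MCL-1 (171-327, 0.0625 nM), followed by 2 h with biotin-Bim 51-76 (0.0625 nM), then sequential 1 h anti-His acceptor and streptavidin donor bead steps; buffer Hepes pH 7.5 with NaCl, Brij 35, DTT, BSA. AlphaScreen signal converted to % inhibition using DMSO (negative) and protein/peptide-free (positive) controls.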

[2] = tested on: SKBR3 cells; experiment: SKBR3 Cell Viability Assay (CellTiter Glo); format: cell-based; settings: Homo sapiens, SK-BR-3, 72 h, CellTiter Glo luminescence, read-out: MCL-1 CV SKBR3 EC50
Method in brief: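 Viability read as CellTiter Glo luminescence after 72 h of compound exposure at 37° C./5% CO2, using 6,000 SKBR3 cells per well in McCoy 5A with 10% FBS. Percent inhibition scaled between DMSO wells and 10 μM puromycin wells.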

Chain of MCL-1/Bim interaction (recombinant human MCL-1 protein, residues 171-327; biotinylated human Bim peptide, residues 51-76) (Q07820 171-327): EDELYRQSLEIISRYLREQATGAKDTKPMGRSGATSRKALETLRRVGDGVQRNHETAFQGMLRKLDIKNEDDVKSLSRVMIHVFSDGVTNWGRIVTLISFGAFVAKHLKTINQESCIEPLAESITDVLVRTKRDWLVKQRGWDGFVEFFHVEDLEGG

Work on `COc1nn(C)cc1C(=O)N[S@@]1(=O)=NC(=O)c2ccc3c(c2)N(C[C@@H]2CC[C@H]2[C@@H](N2CC(OC)C2)/C=C/C[C@H](C)C1)C[C@@]1(CCCc2cc(Cl)ccc21)CO3` [Example 464] yielded a pIC50 [1] of 9.68 and a pEC50 [2] of 6.65.
